Where no end group is shown, it is not given here. [ ]: non-standard residue; d: D form. Aib = CC(C)(N)C(=O)O; Ahx = NCCCCCC(=O)O
Test system: HeLa cell (Human cervix adenocarcinoma cell)
Assay: Cell membrane penetrating performance evaluation (flow cytometry of fluorescein-labelled peptide conjugates)
Format: cell-based
Conditions: 2 μM peptide conjugate, 37° C., 2 hours, ratio to Comparative example 2 = (Fn−F1)/(F2−F1), mode values, flow cytometer
Experimental: Test example 1: Cell Membrane Penetrating Performance Evaluation
HeLa cell (Human cervix adenocarcinoma cell) was cultivated in a culture fluid containing 2 μM of the peptide conjugate of Examples 1 to 9 or Comparative examples 1 to 6 at 37° C. for 2 hours. Then, the cell was collected and stained with a propidium iodide solution to measure a fluorescence intensity using a flow cytometer, and a fluorescence intensity ratio to Comparative example 2 was calculated in accordance with the following formula.
Fluorescence intensity ratio=(Fn−F1)/(F2−F1)
Fn: Fluorescence intensity mode value of tested compound
F1: Fluorescence intensity mode value of tested compound of Comparative example 1
F2: Fluorescence intensity mode value of tested compound of Comparative example 2

| Substance | Fluorescence intensity ratio |
| --- | --- |
| F-Ahx-(cargo peptide)-(Arg)9-(Gly)3-(Leu-Leu-Aib)-NH2 (F[Ahx]CGGSGGSCRRRRRRRRRGGGLL[Aib]-NH2; not fully specified (bridges); cysteine pairing not given here) [Example 8] | 2.74 |
| F-Ahx-(cargo peptide)-(Leu-Leu-Ala)-(Gly)3-(Arg)9-NH2 (F[Ahx]CGGSGGSCLLAGGGRRRRRRRRR-NH2; not fully specified (bridges); cysteine pairing not given here) [Example 9] | 3.34 |

— patent US20220048953A1, “CELL-PENETRATING PEPTIDE” (KANEKA CORPORATION, priority 2018, published 2022)
